Experimental data as given in patent US20130224151A1, “Use of FAAH Inhibitors for Treating Abdominal, Visceral and Pelvic Pain” (UNITED STATES OF AMERICA, priority 2010, published 2013).

Experiments:
[1] = tested on: FAAH substrates (AEA, OEA, and PEA); assay: Brain and GI tissue fatty acid amide levels in cortagine-induced visceral hypersensitive rats (LC-MS/MS); format: in vivo, rat
Protocol: Rats were treated with the FAAH inhibitor URB597 [3′-(aminocarbonyl) biphenyl-3-yl cyclohexylcarbamate](3 mg/kg, SC route) or vehicle (DMSO/cremophor/isotonic saline (1:1:8 v:v:v), PO route) in the cortagine-induced visceral hypersensitivity model as described in Example 3. Briefly Male Sprague-Dawley rats were habituated to Bollman cages for 3 days. The following day, rats were anesthetized with isoflurane and a 5 cm balloon pressure sensor was inserted into the distal colon 1 cm from the anus. After 20 min, a first colorectal distension (CRD) baseline was performed (10, 20, 40, 60 mmHg, 20 s duration, 4 min inter-stimulus) and the visceromotor response (VMR) assessed. After the first CRD, rats were treated with URB597 (3 mg/kg in vehicle, SC route) or vehicle (DMSO/cremophor/isotonic saline (1:1:8 v:v:v), PO route). Two hours later, rats were treated with cortagine (10 μg/kg in vehicle, IP route). After 15 min, a second CRD was performed.
Thirty min after the second CRD, rats were anesthetized with isoflurane, decapitated, and brains were collected rapidly, placed on sheets of aluminum foil sitting on dry ice to flash freeze. A 5 cm-long segment of jejunum and a 5 cm-long segment of ascending colon were collected, split open, dipped in ice-cold physiological saline to rinse away intestinal contents, placed on aluminum foil on top of dry ice to flash freeze. Then, brains, jejunum and ascending colon were placed in separate labeled Falcon tubes, respectively, and stored at −80° C.
On each experimental day, one naive untreated rat (n=6 total) (not treated with test compounds, not treated with cortagine and not subjected to CRD assay), kept in normal housing and handling conditions was also euthanized and its brain, jejunum and ascending colon collected as described above. The other rats were euthanized by CO2 inhalation followed by thoracotomy.
Levels of the endocannabinoids N-arachidonoyl-ethanolamide (AEA, anandamide), N-oleoyl-ethanolamide (OEA) and N-palmitoyl-ethanolamide (PEA) in the brain, jejunum and ascending colon were measured by LC-MS/MS.
The fatty acid amides were extracted from the samples and standards by modifications of the method described in Richardson et al, Analytical Biochemistry, 2007, 360: 216-226, as described below.
Intestine samples were removed from the −80° C. freezer and placed on dry ice. Each intestine sample was weighed in a clean, tared 50 mL polypropylene BD Falcon tube and placed on wet ice after recording the weight. Using a glass pipette, 7 mL of (room temp.) 9:1 ethyl acetate:hexane were added to each intestine. Then, 2.5 μL of 5 μg/mL of IS (12.5 ng, prepared as indicated below) was added to each intestine sample. One conical container was removed at a time from the wet ice and homogenized until the tissue was uniformly minced. Using a homogenizer probe, the contents were homogenized for 30 seconds; 3 mL of water were added to each intestine sample, then homogenized for an additional 15 seconds. The homogenizer probe was rinsed with water between samples and with water and 70% EtOH between dose groups. The homogenates were vortexed for ˜5 sec then centrifuged at […], 3500 rpm for 20 minutes. The ethyl acetate layer (top layer) was recovered and placed in 15 mL glass tubes. The solvent was evaporated under nitrogen (TurboVap, 55° C.) until dry and the tissue extracts were reconstituted in 0.25 mL of 1:3 CHCl3:MeOH. Then the glass tubes were placed in a 37° C. shaking water bath for 5 min and vortexed again to re-suspend them. The samples were transferred to Eppendorf tubes and centrifuged (at room temp) at 13,000 rpm for 3 min. Then, 75 μL of each sample and standard was transferred to a 96 deep well plate on wet ice, and the remaining supernatant was stored at −80° C. The samples and standards were diluted to 1:1 using a multi-channel pipette by adding 75 μL of 100 ng/mL d-4-AEA in ice-cold methanol and pipetting up and down to mix. […]

[2] = tested on: Female Wistar rats; assay: Basal sensitivity to colorectal distension model; format: in vivo, rat; details: 3 mg/kg or 10 mg/kg subcutaneously; CRD measured 3 hrs 15 minutes later
[3] = URB597 3 mg/kg SC, first trial, Student's t test

Question: How did the “levels of AEA, OEA and PEA in the brain, ascending colon and jejunum” value ([1]; URB597 3 mg/kg SC single administration, cortagine-induced visceral hypersensitive rats, first trial, 3 mg/kg) turn out when `NC(=O)c1cccc(-c2cccc(OC(=O)NC3CCCCC3)c2)c1` [URB597, 3′-(aminocarbonyl) biphenyl-3-yl cyclohexyl carbamate, reference compound] was run?
Answer: elevated levels of the three FAAH substrates

Question: And the “levels of AEA and PEA in the jejunum” value [1, 3]?
Answer: statistically different from those in the naïve rats

Question: And the “levels of AEA, OEA, and PEA in the ascending colon versus vehicle treated and naïve rats” value [1, 3]?
Answer: statistically different from those in the vehicle treated and naïve rats

Question: What about the “levels of AEA, OEA, and PEA in the brain versus vehicle treated and naïve rats” value [1, 3] of the same compound?
Answer: statistically different from those in the vehicle treated and naïve rats

Question: And the “levels of OEA in the jejunum” value [1, 3]?
Answer: statistically different from those in the vehicle treated and naïve rats

Question: What about the “levels of AEA, OEA and PEA in the brain, ascending colon and jejunum” value ([1]; second trial, URB597 3 mg/kg SC + cortagine 10 ug/kg IP) of the same compound?
Answer: elevated levels of the three FAAH substrates

Question: What about the “basal sensitivity to colorectal distension (number of abdominal contractions)” value [2] of the same compound?
Answer: does not alter basal sensitivity
